System: M17-TAU P301L cells
Assay: Tau-induced toxicity experiment: LDH leakage of retinoic acid incubated M17-TAU P301L cells
Assay type: cell-based
Conditions: Homo sapiens, Neuroblastoma cell, 168 h; reduction of LDH activity of retinoic acid incubated M17-TAU P301L neuroblastoma cells; 7 days incubation; Promega Cytotox 96 assay
Source text: A TAU expression plasmid was constructed by sub-cloning the cDNA of human TAU-P301L (encoding for TAU with proline 301 substituted by a leucine residue) into mammalian expression vector pcDNA3.1 resulting in plasmid pcDNA3.1-TAU P301L. Plasmids pcDNA3.1 and pcDNA3.1-TAU P301L were transfected to human neuroblastoma cells ([…]; ATCC No. CRL-2267) and independent clonal lines with the plasmids stably integrated into the genome were selected. […] Expression of the TAU P301L genes in the cell lines was confirmed by Western analysis.
In degenerated or dead cells lactate dehydrogenase (LDH) is leaked out of the cells into the extracellular environment due to a loss of plasma-membrane integrity. This principle was used to determine cytotoxicity by quantifying the level of leaked LDH into the growth medium.
The detailed method for determining TAU cytotoxicity was as follows: From appropriate precultures of M17-3.1 and M17-TAU(P301L) cells were seeded at 2500 cells/cm2 in Optimem Reduced Serum without phenol red (Gibco, Cat. 31985-047) supplemented with 1% fetal calf serum, 1 mM sodium pyruvate, 1× non-essential amino acids, 500 μg/ml G418 0.5× antibiotic/antimycotic. After 3 h of incubation at 37° C./5% CO2 1 volume of Optimem Reduced Serum (same as described above; except without fetal calf serum) supplemented with 2.5 μM retinoic acid (RA) was added. The cells were further incubated for 7 days. Subsequently, LDH activity was determined using Promega Cytotox 96 Non-Radioactive cytotoxicity assay, (Cat. G1780) according the supplier's instructions.
The M17-TAU P301L cell line made it possible to assess the ability of novel compounds to counteract TAU cytotoxicity. […] These measurements were used to calculate EC50 values of table 2.
Exemplary compounds of the present invention are shown in table 2, with their chemical name and their EC50 value (expressed in nM) as determined from example 75 in the Tau-induced toxicity experiment.

Row | Structure (SMILES) | EC50
1 | O=C(NCCc1c[nH]c2ccc(Cl)cc12)c1ccc(-c2ccncc2)cc1 [Cpd046, N-(2-(5-chloro-1H-indol-3-yl)ethyl)-4-(pyridin-4-yl)benzamide] | 269 nM
2 | O=C(NCCc1c[nH]c2ccc(Cl)cc12)c1ccc(-c2ccccc2)cc1 [Cpd002, N-(2-(5-chloro-1H-indol-3-yl)ethyl)biphenyl-4-carboxamide] | 130 nM
3 | Cc1ccc(-c2ccc(C(=O)NCCc3c[nH]c4ccc(Cl)cc34)cc2)cc1 [Cpd023, N-(2-(5-chloro-1H-indol-3-yl)ethyl)-4′-methylbiphenyl-4-carboxamide] | 235 nM
4 | O=C(NCCc1c[nH]c2ccc(Cl)cc12)c1cccc(-c2ccc(F)cc2)c1 [Cpd041, N-(2-(5-chloro-1H-indol-3-yl)ethyl)-4′-fluorobiphenyl-3-carboxamide] | 186 nM
5 | O=C(NCCc1c[nH]c2ccc(Cl)cc12)c1ccccc1-n1cccn1 [Cpd025, N-(2-(5-chloro-1H-indol-3-yl)ethyl)-2-(1H-pyrazol-1-yl)benzamide] | 760 nM
6 | Cc1ccc(-c2cccc(C(=O)NCCc3c[nH]c4ccc(Cl)cc34)c2)cc1 [Cpd022, N-(2-(5-chloro-1H-indol-3-yl)ethyl)-4′-methylbiphenyl-3-carboxamide] | 354 nM
7 | O=C(NCCc1c[nH]c2ccc(Cl)cc12)c1ccccc1-c1cccc(F)c1 [Cpd038, N-(2-(5-chloro-1H-indol-3-yl)ethyl)-3′-fluorobiphenyl-2-carboxamide] | 226 nM
8 | Cc1ccc2[nH]cc(CCNC(=O)c3ccc(-c4ccccc4)cc3)c2c1 [Cpd004, N-(2-(5-methyl-1H-indol-3-yl)ethyl)biphenyl-4-carboxamide] | 238 nM
9 | O=C(NCCc1c[nH]c2ccc(Cl)cc12)c1ccccc1-c1ccccc1 [Cpd008, N-(2-(5-chloro-1H-indol-3-yl)ethyl)biphenyl-2-carboxamide] | 249 nM
10 | COc1ccc(-c2ccc(C(=O)NCCc3c[nH]c4ccc(Cl)cc34)cc2)cc1 [Cpd034, N-(2-(5-chloro-1H-indol-3-yl)ethyl)-4′-methoxybiphenyl-4-carboxamide] | 91 nM
11 | O=C(NCCc1c[nH]c2ccc(Cl)cc12)c1ccccc1-c1cccc(Cl)c1 [Cpd057, 3′-chloro-N-(2-(5-chloro-1H-indol-3-yl)ethyl)biphenyl-2-carboxamide] | 159 nM
12 | O=C(NCCc1c[nH]c2ccc(Cl)cc12)c1ccc(-c2ccc(C(F)(F)F)cc2)cc1 [Cpd074, N-(2-(5-chloro-1H-indol-3-yl)ethyl)-4′-(trifluoromethyl)biphenyl-4-carboxamide] | 200 nM
13 | O=C(NCCc1c[nH]c2ccc(Cl)cc12)c1ccc(-c2ccccc2)nn1 [Cpd075, N-(2-(5-chloro-1H-indol-3-yl)ethyl)-6-phenylpyridazine-3-carboxamide] | 81 nM
14 | O=C(NCCc1c[nH]c2ccc(Cl)cc12)c1ccc(-c2ccc(Cl)cc2)cc1 [Cpd061, 4′-chloro-N-(2-(5-chloro-1H-indol-3-yl)ethyl)biphenyl-4-carboxamide] | 111 nM
15 | Cc1ccccc1-c1ccccc1C(=O)NCCc1c[nH]c2ccc(Cl)cc12 [Cpd015, N-(2-(5-chloro-1H-indol-3-yl)ethyl)-2′-methylbiphenyl-2-carboxamide] | 381 nM
16 | O=C(NCCc1c[nH]c2ccc(Cl)cc12)c1ccccc1-c1ccccc1Cl [Cpd054, 2′-chloro-N-(2-(5-chloro-1H-indol-3-yl)ethyl)biphenyl-2-carboxamide] | 170 nM
17 | O=C(NCCc1c[nH]c2ccc(Cl)cc12)c1ccccc1-c1ccc(Cl)cc1 [Cpd063, 4′-chloro-N-(2-(5-chloro-1H-indol-3-yl)ethyl)biphenyl-2-carboxamide] | 154 nM
18 | CCOC(=O)c1cnn(-c2ccc(C(=O)NCCc3c[nH]c4ccc(C)cc34)cc2)c1N [Cpd005, ethyl 5-amino-1-(4-(2-(5-methyl-1H-indol-3-yl)ethylcarbamoyl)phenyl)-1H-pyrazole-4-carboxylate] | 297 nM
19 | O=C(NCCc1c[nH]c2ccc(Cl)cc12)c1ccc(-c2ccc(O)cc2)cc1 [Cpd014, N-(2-(5-chloro-1H-indol-3-yl)ethyl)-4′-hydroxybiphenyl-4-carboxamide] | 57 nM
20 | O=C(NCCc1c[nH]c2ccc(Cl)cc12)c1ccccc1-c1ccccc1F [Cpd035, N-(2-(5-chloro-1H-indol-3-yl)ethyl)-2′-fluorobiphenyl-2-carboxamide] | 165 nM
21 | O=C(NCCc1c[nH]c2ccc(F)cc12)c1ccnc(N2CCOCC2)c1 [Cpd007, N-(2-(5-fluoro-1H-indol-3-yl)ethyl)-2-morpholinoisonicotinamide] | 1080 nM

Row | Structure (SMILES) | EC50
22 | O=C(NCCc1c[nH]c2ccc(Cl)cc12)c1cccc(-c2ccc(Cl)cc2)c1 [Cpd060, 4′-chloro-N-(2-(5-chloro-1H-indol-3-yl)ethyl)biphenyl-3-carboxamide] | 159 nM
23 | N#Cc1ccccc1-c1ccc(C(=O)NCCc2c[nH]c3ccc(Cl)cc23)cc1 [Cpd044, N-(2-(5-chloro-1H-indol-3-yl)ethyl)-2′-cyanobiphenyl-4-carboxamide] | 75 nM
24 | N#Cc1cccc(-c2ccccc2C(=O)NCCc2c[nH]c3ccc(Cl)cc23)c1 [Cpd048, N-(2-(5-chloro-1H-indol-3-yl)ethyl)-3′-cyanobiphenyl-2-carboxamide] | 232 nM
25 | COc1ccc(-c2ccccc2C(=O)NCCc2c[nH]c3ccc(Cl)cc23)cc1 [Cpd032, N-(2-(5-chloro-1H-indol-3-yl)ethyl)-4′-methoxybiphenyl-2-carboxamide] | 200 nM
26 | N#Cc1cccc(-c2cccc(C(=O)NCCc3c[nH]c4ccc(Cl)cc34)c2)c1 [Cpd049, N-(2-(5-chloro-1H-indol-3-yl)ethyl)-3′-cyanobiphenyl-3-carboxamide] | 61 nM
27 | O=C(NCCc1c[nH]c2ccc(Cl)cc12)c1ccc(N2CCOCC2)nc1 [Cpd024, N-(2-(5-chloro-1H-indol-3-yl)ethyl)-6-morpholinonicotinamide] | 765 nM
28 | O=C(NCCc1c[nH]c2ccc(Cl)cc12)c1cccc(-c2ccccc2)c1 [Cpd010, N-(2-(5-chloro-1H-indol-3-yl)ethyl)biphenyl-3-carboxamide] | 187 nM
29 | N#Cc1ccc(-c2ccccc2C(=O)NCCc2c[nH]c3ccc(Cl)cc23)cc1 [Cpd051, N-(2-(5-chloro-1H-indol-3-yl)ethyl)-4′-cyanobiphenyl-2-carboxamide] | 325 nM
30 | Cc1cccc(C)c1-c1cccc(C(=O)NCCc2c[nH]c3ccc(Cl)cc23)c1 [Cpd070, N-(2-(5-chloro-1H-indol-3-yl)ethyl)-2′,6′-dimethylbiphenyl-3-carboxamide] | 606 nM
31 | O=C(NCCc1c[nH]c2ccc(Cl)cc12)c1ccccc1-c1cccc(C(F)(F)F)c1 [Cpd064, N-(2-(5-chloro-1H-indol-3-yl)ethyl)-3′-(trifluoromethyl)biphenyl-2-carboxamide] | 418 nM
32 | O=C(NCCc1c[nH]c2ccc(Cl)cc12)c1cccc(-c2cccc(F)c2)c1 [Cpd047, N-(2-(5-chloro-1H-indol-3-yl)ethyl)-3′-fluorobiphenyl-3-carboxamide] | 408 nM
33 | N#Cc1ccc(-c2ccc(C(=O)NCCc3c[nH]c4ccc(Cl)cc34)cc2)cc1 [Cpd053, N-(2-(5-chloro-1H-indol-3-yl)ethyl)-4′-cyanobiphenyl-4-carboxamide] | 85 nM
34 | O=C(NCCc1c[nH]c2ccc(Cl)cc12)c1cccc(-c2ccc(O)cc2)c1 [Cpd013, N-(2-(5-chloro-1H-indol-3-yl)ethyl)-4′-hydroxybiphenyl-3-carboxamide] | 77 nM
35 | N#Cc1ccccc1-c1cccc(C(=O)NCCc2c[nH]c3ccc(Cl)cc23)c1 [Cpd043, N-(2-(5-chloro-1H-indol-3-yl)ethyl)-2′-cyanobiphenyl-3-carboxamide] | 169 nM
36 | O=C(NCCc1c[nH]c2ccc(F)cc12)c1ccc(-c2ccccc2)cc1 [Cpd003, N-(2-(5-fluoro-1H-indol-3-yl)ethyl)biphenyl-4-carboxamide] | 448 nM
37 | Cc1ccc(-c2ccccc2C(=O)NCCc2c[nH]c3ccc(Cl)cc23)cc1 [Cpd021, N-(2-(5-chloro-1H-indol-3-yl)ethyl)-4′-methylbiphenyl-2-carboxamide] | 237 nM
38 | O=C(NCCc1c[nH]c2ccc(Cl)cc12)c1cccc(-c2cccc(Cl)c2)c1 [Cpd058, 3′-chloro-N-(2-(5-chloro-1H-indol-3-yl)ethyl)biphenyl-3-carboxamide] | 186 nM
39 | N#Cc1ccc(-c2cccc(C(=O)NCCc3c[nH]c4ccc(Cl)cc34)c2)cc1 [Cpd052, N-(2-(5-chloro-1H-indol-3-yl)ethyl)-4′-cyanobiphenyl-3-carboxamide] | 112 nM
40 | O=C(NCCc1c[nH]c2ccc(Cl)cc12)c1ccc(-c2ccc(F)cc2)cc1 [Cpd042, N-(2-(5-chloro-1H-indol-3-yl)ethyl)-4′-fluorobiphenyl-4-carboxamide] | 228 nM
41 | O=C(NCCc1c[nH]c2ccc(Cl)cc12)c1cccc(-c2ccc(C(F)(F)F)cc2)c1 [Cpd068, N-(2-(5-chloro-1H-indol-3-yl)ethyl)-4′-(trifluoromethyl)biphenyl-3-carboxamide] | 367 nM
